US9221838B2, “Inhibitors of AKT activity” (ALMAC DISCOVERY LIMITED, priority 2009, dated 2015)

Columns and labels:
Assay type in all cases: biochemical
AKT3 = target: T1, AKT3 (Homo sapiens, UniProt Q9Y243); assay: AKT Kinase Assay (IMAP fluorescent polarisation) vs AKT3
T1 construct: purchased SignalChem
Method: (§1) Testing of the compounds was performed using an AKT Kinase Assay:
(§2) Activated AKT isoforms 1, 2 and 3 were assayed utilising a 5′ FAM Crosstide (Seq. GRPRTSSFAEG-OH)(SEO ID NO: 1). The extent of kinase phosphorylation was determined by fluorescent polarisation using IMAP progressive binding reagent, which introduces binding beads which allow the reagent to specifically bind to phosphate residues via covalent co-ordination complex bonds.
(§3) iMAP binding solution stops Crosstide/kinase interaction and specifically binds phosphorylated substrates. The degree of phosphorylation is determined by fluorescent polarisation (excitation 485 nm; emission 528 nm) or the reduction in speed of rotation of the excited substrate.
(§4) The following materials were used in the assay: • a) Activated AKT isoforms (SignalChem.) dissolved in Complete Reaction buffer at a pre-determined concentration selected so that the assay was carried out in the linear range. • b) AKT substrate peptide: FAM Crosstide (R7110) Molecular Devices, diluted in complete reaction buffer. • c) iMAP Progressive Screening Express Kit (R8127) Molecular Devices • d) Complete Reaction Buffer containing 0.1% BSA, 10 mM Tris-HCl, 10 mM MgCl2, 0.05% NaN3 and 0.01% phosphate free BSA, 1 mM DTT • e) Progressive Binding Solution containing 75% Buffer A, 25% Buffer B and low volume Binding Reagent which contains the binding entity for the assay • f) ATP diluted in complete reaction buffer • g) Black polystyrene 384 well assay plates (Nunc). • h) Biotek Synergy 4 Hybrid Plate reader.
(§5) 5 μl of test compound was dissolved in DMSO (Sigma Aldrich) and serially diluted in complete reaction buffer to give a fourteen point half log dose response and plated into 384 well black plates. The compound was incubated at room temperature with activated AKT isoform ([…] ) at the pre-determined concentration, for 45 minutes.
(§6) 2.5 μl of ATP solution mixed with 2.5 μl of AKT substrate peptide (FAM Crosstide (R7110) Molecular Devices) were dispensed into each well and the plate centrifuged at 1000 rpm for 20 seconds to ensure homogenous mixing of reagents. The reaction mix was incubated in the dark for one hour at room temperature.
(§7) The kinase reaction was stopped by the addition of Progressive Binding Solution and the mixture allowed to equilibrate for one hour in the dark, at room temperature.
(§8) The fluorescent polarisation generated in each well was determined using a […] Synergy 4 Hybrid plate reader. In brief, each reaction solution was excited at 485 nm with the emission measured at 528 nm in both the parallel and perpendicular pathway.
(§9) The polarisation value generated in each well was calculated by Gen5 software (Biotek) and the % inhibition of kinase activity compared to vehicle control was calculated via GraphPad Prism. IC50 values for each compound were calculated by non-linear regression analysis using Prism software.
(§10) All plates were internally controlled by two methods. Firstly, by calculating the signal:noise ratio; based on kinase polarisation without inhibitor and polarisation generated by complete reaction buffer in the absence of activated kinase. Secondly by determining IC50 values generated by known inhibitors of the AKT isoforms.

AKT1 = target: T2, AKT1 (Homo sapiens, UniProt P31749); assay: AKT Kinase Assay (IMAP fluorescent polarisation) vs AKT1
T2 construct: purchased SignalChem
Method: as §1, §2, §3, §4, §5, §6, §7, §8, §9, §10

AKT2 = target: T3, AKT2 (Homo sapiens, UniProt P31751); assay: AKT Kinase Assay (IMAP fluorescent polarisation) vs AKT2
T3 construct: purchased SignalChem
Method: as §1, §2, §3, §4, §5, §6, §7, §8, §9, §10

T3 sequence (P31751 whole entry): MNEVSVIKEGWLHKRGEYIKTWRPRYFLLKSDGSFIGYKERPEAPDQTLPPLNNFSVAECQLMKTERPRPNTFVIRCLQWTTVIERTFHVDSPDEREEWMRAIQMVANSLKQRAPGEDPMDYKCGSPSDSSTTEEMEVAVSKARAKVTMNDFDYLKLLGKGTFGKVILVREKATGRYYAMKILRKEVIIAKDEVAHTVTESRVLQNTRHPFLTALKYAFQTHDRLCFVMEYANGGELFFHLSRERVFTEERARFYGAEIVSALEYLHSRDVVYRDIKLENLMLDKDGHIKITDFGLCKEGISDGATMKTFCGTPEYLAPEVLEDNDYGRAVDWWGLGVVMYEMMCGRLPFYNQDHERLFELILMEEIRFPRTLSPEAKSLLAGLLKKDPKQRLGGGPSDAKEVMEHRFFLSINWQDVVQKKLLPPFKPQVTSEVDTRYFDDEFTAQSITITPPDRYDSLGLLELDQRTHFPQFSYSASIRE
T1 sequence (Q9Y243 whole entry): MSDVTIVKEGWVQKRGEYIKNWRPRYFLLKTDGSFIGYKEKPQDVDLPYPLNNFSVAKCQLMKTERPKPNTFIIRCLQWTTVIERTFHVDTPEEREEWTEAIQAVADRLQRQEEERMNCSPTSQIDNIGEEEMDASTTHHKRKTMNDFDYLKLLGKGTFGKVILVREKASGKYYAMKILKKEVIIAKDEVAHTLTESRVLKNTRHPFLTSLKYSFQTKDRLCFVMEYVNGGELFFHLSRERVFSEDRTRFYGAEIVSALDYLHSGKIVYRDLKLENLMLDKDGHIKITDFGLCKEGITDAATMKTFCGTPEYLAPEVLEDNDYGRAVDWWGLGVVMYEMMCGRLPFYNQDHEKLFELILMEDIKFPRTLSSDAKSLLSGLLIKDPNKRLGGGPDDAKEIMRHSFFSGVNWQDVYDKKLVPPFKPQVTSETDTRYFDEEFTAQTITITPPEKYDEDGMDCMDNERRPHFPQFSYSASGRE
T2 sequence (P31749 whole entry): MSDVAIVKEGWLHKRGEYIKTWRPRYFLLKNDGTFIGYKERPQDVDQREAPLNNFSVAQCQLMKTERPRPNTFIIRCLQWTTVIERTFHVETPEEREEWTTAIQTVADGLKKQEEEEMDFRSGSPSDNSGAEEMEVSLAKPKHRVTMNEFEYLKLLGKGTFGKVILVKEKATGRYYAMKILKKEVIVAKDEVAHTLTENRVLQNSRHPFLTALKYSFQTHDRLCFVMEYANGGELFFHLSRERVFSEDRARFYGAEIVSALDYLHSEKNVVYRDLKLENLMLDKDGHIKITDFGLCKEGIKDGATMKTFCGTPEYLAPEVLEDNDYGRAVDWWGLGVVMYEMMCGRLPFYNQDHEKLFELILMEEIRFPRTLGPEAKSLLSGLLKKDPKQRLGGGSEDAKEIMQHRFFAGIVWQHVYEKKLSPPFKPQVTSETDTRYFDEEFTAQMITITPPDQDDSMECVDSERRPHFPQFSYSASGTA

| SMILES | IC50 (AKT3) [nM] | IC50 (AKT1) [nM] | IC50 (AKT2) [nM] |
| --- | --- | --- | --- |
| CN1CCc2nc(-c3ccc(C4(N)CCC4)cc3)c(-c3ccccc3)cc2C1=O [Example 23, 2-(4-(1-aminocyclobutyl)phenyl)-6-methyl-3-phenyl-7,8-dihydro-1,6-naphthyridin-5(6H)-one] | > 10000 | 100 to 1000 | 1000 to 10000 |
| CN1C(=O)COc2nc(-c3ccc(C4(N)CC4)cc3)c(-c3ccccc3)cc21 [Example 149, 6-(4-(1-aminocyclopropyl)phenyl)-1-methyl-7-phenyl-1H-pyrido[2,3-b][1,4]oxazin-2(3H)-one] | > 10000 | 100 to 1000 | 1000 to 10000 |
| NC1(c2ccc(-c3nc4c(cc3-c3ccccc3)NCCO4)cc2)CCC1 [Example 37, 1-(4-(7-phenyl-2,3-dihydro-1H-pyrido[2,3-b][1,4]oxazin-6-yl)phenyl)cyclobutanamine] | > 10000 | 100 to 1000 | 1000 to 10000 |
| NC(=O)CN1CCOc2nc(-c3ccc(C4(N)CCC4)cc3)c(-c3ccccc3)cc21 [Example 44, 2-(6-(4-(1-aminocyclobutyl)phenyl)-7-phenyl-2,3-dihydro-1H-pyrido[2,3-b][1,4]oxazin-1-yl)acetamide] | > 10000 | 1000 to 10000 | 1000 to 10000 |
| N#CCN1c2cc(-c3ccccc3)c(-c3ccc(C4(N)CCC4)cc3)nc2OCS1(=O)=O [Example 76, 2-(6-(4-(1-aminocyclobutyl)phenyl)-2,2-dioxido-7-phenyl-1H-pyrido[3,2-e][1,3,4]oxathiazin-1-yl)acetonitrile] | > 10000 | 100 to 1000 | ≤ 100 |
| CC12CCc3nc(-c4ccc(C5(N)CCC5)cc4)c(-c4ccccc4)cc3C1=NNC2=O (stereo not drawn) [Example 8, 7-(4-(1-aminocyclobutyl)phenyl)-3a-methyl-8-phenyl-4,5-dihydro-2H-pyrazolo[3,4-f]quinolin-3(3aH)-one] | > 10000 | 100 to 1000 | 100 to 1000 |
| N[C@]1(c2ccc(-c3nc4c(cc3-c3ccccc3)N(CC(F)(F)F)C(=O)CO4)cc2)C[C@H](O)C1 [Example 148, 6-(4-((1s,3s)-1-amino-3-hydroxycyclobutyl)phenyl)-7-phenyl-1-(2,2,2-trifluoroethyl)-1H-pyrido[2,3-b][1,4]oxazin-2(3H)-one] | > 10000 | 100 to 1000 | 100 to 1000 |
| NC1(c2ccc(-c3nc4c(cc3-c3ccccc3)-n3c(nnc3-c3cccnc3)CO4)cc2)CCC1 [Example 122, 1-(4-(8-phenyl-1-(pyridin-3-yl)-4H-pyrido[2,3-b][1,2,4]triazolo[4,3-d][1,4]oxazin-7-yl)phenyl)cyclobutanamine] | 1000 to 10000 | 100 to 1000 | 1000 to 10000 |
| COCCc1nnc2n1-c1cc(-c3ccccc3)c(-c3ccc(C4(N)CCC4)cc3)nc1OC2 [Example 121, 1-(4-(1-(2-methoxyethyl)-8-phenyl-4H-pyrido[2,3-b][1,2,4]triazolo[4,3-d][1,4]oxazin-7-yl)phenyl)cyclobutanamine] | 1000 to 10000 | 100 to 1000 | 1000 to 10000 |
| NC1(c2ccc(-c3nc4c(cc3-c3ccccc3)-n3c(nn(CC(F)(F)F)c3=O)CO4)cc2)CCC1 [Example 103, 7-(4-(1-aminocyclobutyl)phenyl)-8-phenyl-2-(2,2,2-trifluoroethyl)-2,4-dihydro-1H-pyrido[2,3-b][1,2,4]triazolo[4,3-d][1,4]oxazin-1-one] | 1000 to 10000 | 1000 to 10000 | 100 to 1000 |
| NC1(c2ccc(-c3nc4c(cc3-c3ccccc3)NC(=O)NC4)cc2)CCC1 [Example 87, 6-(4-(1-aminocyclobutyl)phenyl)-7-phenyl-3,4-dihydropyrido[3,2-d]pyrimidin-2(1H)-one] | > 10000 | 100 to 1000 | 1000 to 10000 |
| CN1C(=O)COc2nc(-c3ccc(C4(N)CCC4)cc3)c(-c3cccs3)cc21 [Example 126, 6-(4-(1-aminocyclobutyl)phenyl)-1-methyl-7-(thiophen-2-yl)-1H-pyrido[2,3-b][1,4]oxazin-2(3H)-one] | 1000 to 10000 | 100 to 1000 | 100 to 1000 |
| N[C@]1(c2ccc(-c3nc4c(cc3-c3ccccc3)N(CC3CC3)C(=O)CO4)cc2)C[C@H](O)C1 [Example 140, 6-(4-((1s,3s)-1-amino-3-hydroxycyclobutyl)phenyl)-1-(cyclopropylmethyl)-7-phenyl-1H-pyrido[2,3-b][1,4]oxazin-2(3H)-one] | 1000 to 10000 | 100 to 1000 | 100 to 1000 |

More lines, now with the values ahead:

| IC50 (AKT3) [nM] | IC50 (AKT1) [nM] | IC50 (AKT2) [nM] | SMILES |
| --- | --- | --- | --- |
| 1000 to 10000 | ≤ 100 | 100 to 1000 | CCc1nnc2n1-c1cc(-c3ccccc3)c(-c3ccc(C4(N)CCC4)cc3)nc1OC2 [Example 47, 1-(4-(1-ethyl-8-phenyl-4H-pyrido[2,3-b][1,2,4]triazolo[4,3-d][1,4]oxazin-7-yl)phenyl)cyclobutanamine] |
| 1000 to 10000 | 1000 to 10000 | 100 to 1000 | NC1(c2ccc(-c3nc4c(cc3-c3ccccc3)N(C3CCC3)C(=O)CO4)cc2)CCC1 [Example 61, 6-(4-(1-aminocyclobutyl)phenyl)-1-cyclobutyl-7-phenyl-1H-pyrido[2,3-b][1,4]oxazin-2(3H)-one] |
| 1000 to 10000 | 100 to 1000 | 1000 to 10000 | CN1C(=O)COc2nc(-c3ccc(C4(N)CCC4)cc3)c(-c3ccsc3)cc21 [Example 125, 6-(4-(1-aminocyclobutyl)phenyl)-1-methyl-7-(thiophen-3-yl)-1H-pyrido[2,3-b][1,4]oxazin-2(3H)-one] |
| 1000 to 10000 | 100 to 1000 | 100 to 1000 | CC(C#N)N1C(=O)COc2nc(-c3ccc(C4(N)CCC4)cc3)c(-c3ccccc3)cc21 (stereo not drawn) [Example 54, 2-(6-(4-(1-aminocyclobutyl)phenyl)-2-oxo-7-phenyl-2,3-dihydro-1H-pyrido[2,3-b][1,4]oxazin-1-yl)propanenitrile] |
| 1000 to 10000 | ≤ 100 | 100 to 1000 | CC1Oc2nc(-c3ccc(C4(N)CCC4)cc3)c(-c3ccccc3)cc2N(CC#N)C1=O (stereo not drawn) [Example 81, 2-(6-(4-(1-aminocyclobutyl)phenyl)-3-methyl-2-oxo-7-phenyl-2,3-dihydro-1H-pyrido[2,3-b][1,4]oxazin-1-yl)acetonitrile] |
| 1000 to 10000 | 100 to 1000 | 100 to 1000 | NC1(c2ccc(-c3nc4c(cc3-c3ccccc3)-c3n[nH]c(N5CCOCC5)c3CC4)cc2)CCC1 [Example 13, 1-(4-(3-morpholino-8-phenyl-4,5-dihydro-2H-pyrazolo[3,4-f]quinolin-7-yl)phenyl)cyclobutanamine] |
| 1000 to 10000 | 100 to 1000 | 1000 to 10000 | CC(C)c1nnc2n1-c1cc(-c3ccccc3)c(-c3ccc(C4(N)CCC4)cc3)nc1OC2 [Example 112, 1-(4-(1-isopropyl-8-phenyl-4H-pyrido[2,3-b][1,2,4]triazolo[4,3-d][1,4]oxazin-7-yl)phenyl)cyclobutanamine] |
| 1000 to 10000 | ≤ 100 | 100 to 1000 | C[C@]1(O)C[C@@](N)(c2ccc(-c3nc4c(cc3-c3ccccc3)-n3c(n[nH]c3=O)CO4)cc2)C1 [Example 79, 7-(4-((1r,3r)-1-amino-3-hydroxy-3-methylcyclobutyl)phenyl)-8-phenyl-2,4-dihydro-1H-pyrido[2,3-b][1,2,4]triazolo[4,3-d][1,4]oxazin-1-one] |
| 100 to 1000 | ≤ 100 | ≤ 100 | NC1(c2ccc(-c3nc4c(cc3-c3ccccc3)N(CCF)C(=O)N(CCF)C4)cc2)CCC1 [Example 109, 6-(4-(1-aminocyclobutyl)phenyl)-1,3-bis(2-fluoroethyl)-7-phenyl-3,4-dihydropyrido[3,2-d]pyrimidin-2(1H)-one] |
| 100 to 1000 | ≤ 100 | 100 to 1000 | C[C@]1(O)C[C@@](N)(c2ccc(-c3nc4c(cc3-c3ccccc3)-n3c(nnc3C(F)F)CO4)cc2)C1 [Example 128, (1r,3r)-3-amino-3-(4-(1-(difluoromethyl)-8-phenyl-4H-pyrido[2,3-b][1,2,4]triazolo[4,3-d][1,4]oxazin-7-0)phenyl)-1-methylcyclobutanol] |
